# What was measured:
# [1] = test system: HEL; experiment: Effective concentration against human cytomegalovirus Davies strain in HEL cell cultures; assay type: functional, cell-based
# [2] = test system: HEL; experiment: Effective concentration against human cytomegalovirus AD-169 strain in HEL cell cultures; assay type: functional, cell-based
# [3] = test system: HEL; experiment: Cytotoxic concentration required to reduce HEL cell growth by 50%; assay type: functional; settings: Homo sapiens
SMILES,EC50 [1],EC50 [2],CC50 [3]
Nc1nc2c(ncn2COC(CO)CO)c(=O)[nH]1 [GANCICLOVIR],0.8 µM,0.9 µM,> 150 µM
C[C@@H](NC(=O)N1C(=O)C[C@@]1(Cc1ccccc1)C(=O)O)c1ccccc1,> 200 µM,> 200 µM,> 200 µM
O=C1C[C@H](Cc2ccccc2)N1C(=O)NCc1ccccc1,–,53 µM,> 750 µM
C[C@H](NC(=O)N1C(=O)C[C@@]1(Cc1ccccc1)C(=O)O)c1ccccc1,> 50 µM,> 50 µM,187 µM
C[C@H](NC(=O)N1C(=O)C[C@]1(Cc1ccccc1)C(=O)O)c1ccccc1,> 200 µM,> 200 µM,> 200 µM
Nc1ccn(C[C@@H](CO)OCP(=O)(O)O)c(=O)n1 [CIDOFOVIR],0.5 µM,0.16 µM,> 150 µM
CC(C)(C)OC(=O)N1C(=O)CC1(Cc1ccccc1)C(=O)OC(C)(C)C (centres undefined),> 200 µM,> 200 µM,> 200 µM
C[C@@H](NC(=O)N1C(=O)C[C@]1(Cc1ccccc1)C(=O)O)c1ccccc1,> 50 µM,> 50 µM,> 200 µM
C[C@H](NC(=O)N1C(=O)C[C@@]1(Cc1ccccc1)C(=O)OC(C)(C)C)c1ccccc1,35 µM,35 µM,184 µM
CC(C)(C)OC(=O)C1(Cc2ccccc2)CC(=O)N1C(=O)Nc1ccccc1 (centres undefined),50 µM,50 µM,118 µM
C[C@@H](NC(=O)N1C(=O)C[C@@]1(Cc1ccccc1)C(=O)OC(C)(C)C)c1ccccc1,33 µM,32 µM,70 µM
C[C@H](NC(=O)N1C(=O)C[C@]1(Cc1ccccc1)C(=O)OC(C)(C)C)c1ccccc1,33 µM,32 µM,164 µM
CC(C)(C)OC(=O)C1(Cc2ccccc2)CC(=O)N1C(=O)OCc1ccccc1 (centres undefined),13 µM,11 µM,36 µM
CC(C)(C)OC(=O)C1(Cc2ccccc2)CCN1C(=O)OCc1ccccc1 (centres undefined),0.62 µM,0.74 µM,34 µM
C[C@@H](NC(=O)N1C(=O)C[C@]1(Cc1ccccc1)C(=O)OC(C)(C)C)c1ccccc1,107 µM,100 µM,> 200 µM
